In US7790710B2, “Imidazopyridine derivatives useful as iNOS inhibitors” (NYCOMED GmbH, priority 2005, dated 2010):

Legend:
[1] = molecular target: T1, human inducible NO-synthase (Homo sapiens, UniProt P35228); assay: Measurement of inducible NO-synthase activity; assay type: biochemical; settings: crude cytosolic fraction containing human iNOS; 0.1 μM arginine; [3H]arginine; read-out: Inhibition of iNOS activity -logIC50 (converted)
Method: (§1) The assay is performed in 96-well microtiter F-plates (Greiner, Frickenhausen, FRG) in a total volume of 100 μl in the presence of 100 nM calmodulin, 226 μM CaCl2, 477 μM MgCl2, 5 μM flavin-adenine-dinucleotide (FAD), 5 μM flavin mononucleotide (FMN), 0.1 mM nicotinamide adenine dinucleotide phosphate (NADPH), 7 mM glutathione, 10 μM tetrahydrobiopterine (BH4) and 100 mM 4-(2-hydroxyethyl)piperazine-1-ethanesulfonic acid (HEPES) pH 7.2. Arginine concentrations are 0.1 μM for enzyme inhibition experiments. 150000 dpm of [^3H]arginine are added to the assay mixture. Enzyme reaction is started by the addition of 4 μg of a crude cytosolic fraction containing human inducible NO-synthase and the reaction mixture is incubated for 45 to 60 min at 37° C. Enzyme reaction is stopped by adding 10 μl of 2M 2-morpholinoethane sulfonic acid buffer (MES-buffer) pH 5.0. 50 μl of the incubation mixture are transferred into a MADP N65 filtration microtiter plate (Millipore, Eschborn, FRG) containing already 50 μl of AG-50W-X8 cation exchange resin (Biorad, München, FRG). The resin in the Na loaded form is pre-equilibrated in water and 70 μl (corresponding to 50 μl dry beads) are pipetted under heavy stirring with a 8 channel pipette into the filtration plate. After pipetting 50 μl of the enzyme reaction mixture onto the filtration plates, the plates are placed on a filtration manifold (Porvair, Shepperton, UK) and the flow through is collected in Pico scintillation plates (Packard, Meriden, Conn.). The resin in the filtration plates is washed with 75 μl of water (1×50 μl and 1×25 μl) which is also collected in the same plate as the sample. The total flow through of 125 μl is mixed with 175 μl of Microscint-40 scintillation cocktail (Packard) and the scintillation plate is sealed with TopSeal P-foil (Packard). Scintillation plates are counted in a szintillation counter.
(§2) For the measurement of inducible NO-synthase-inhibiting potencies of compounds according to the invention increasing concentrations of inhibitors are included into the incubation mixture. IC50 values are calculated from the percent inhibition at given concentrations by nonlinear least square fitting.

[2] = molecular target: T1, human inducible NO-synthase; assay: Measurement of inducible NO-synthase activity in the presence of 20% human plasma serum; assay type: biochemical; settings: 20% (v/v) human plasma serum added into the reaction volume; read-out: Inhibition of iNOS activity -logIC50 20% human serum (converted)
Method: as §1, §2
The assay determining the human plasma serum binding of compounds according to the invention was performed essentially as the enzymatic activity assay described above. Human plasma serum 20% (v/v) was added into the reaction volume. Human serum was obtained after coagulation and sedimentation of drawn donor blood. After centrifugation (two times 3500 rpm, 30 min) the plasma serum was dialyzed in phosphate buffered saline (PBS) for 18 h using dialysis cassettes with a molecular weight cuttoff of 3500 Dalton (Slide-a-Lyzer 3.5 K, Pierce, Rockford Ill.) in order to reduce the L-arginine concentration that is interfering with the radioactive activity assay. The buffer was refreshed 5 times during dialysis. The serum was aliquoted and frozen at −20° C. until use. Inhibitory potency of the compounds according to the invention was determined as described above.

CCN1CCN(S(=O)(=O)c2ccc(-c3cnc4[nH]c(CCC5CCCCC(N)=N5)nc4c3)cc2)CC1 (stereo not shown) [compound 7, 7-(2-{6-[4-(4-Ethyl-piperazine-1-sulfonyl)-phenyl]-3H-imidazo[4,5-b]pyridin-2-yl}-ethyl)-4,5,6,7-tetrahydro-3H-azepin-2-ylamine]
melting point: 199 °C
IC50 [1]: 468 nM

NC1=NC(CCc2nc3cc(-c4ccccc4)cnc3[nH]2)CCCC1 (stereo not shown) [compound 1, 7-[2-(6-Phenyl-3H-imidazo[4,5-b]pyridin-2-yl)-ethyl]-4,5,6,7-tetrahydro-3H-azepin-2-ylamine]
melting point: 117 °C (dec.)
IC50 [1]: 170 nM
IC50 [2]: 1000 nM

Cc1ccc(NS(=O)(=O)c2ccc(-c3cnc4[nH]c(CCC5CCCCC(N)=N5)nc4c3)cc2)c(F)c1 (stereo not shown) [compound 8, 4-{2-[2-(7-Amino-3,4,5,6-tetrahydro-2H-azepin-2-yl)-ethyl]-3H-imidazo[4,5-b]pyridin-6-yl}-N-(2-fluoro-4-methyl-phenyl)-benzenesulfonamide]
melting point: 265 °C
IC50 [1]: 589 nM

N#Cc1ccc(-c2cnc3[nH]c(CCC4CCCCC(N)=N4)nc3c2)cc1 (stereo not shown) [compound 2, 7-[2-(6-{4-Cyano-phen-1-yl}-3H-imidazo[4,5-b]pyridin-2-yl)-ethyl]-4,5,6,7-tetrahydro-3H-azepin-2-ylamine]
melting point: 175 °C (dec.)
IC50 [1]: 224 nM
IC50 [2]: 398 nM

CN(C)S(=O)(=O)c1ccc(-c2cnc3[nH]c(CCC4CCCCC(N)=N4)nc3c2)cc1 (stereo not shown) [compound 5, 4-{2-[2-(7-Amino-3,4,5,6-tetrahydro-2H-azepin-2-yl)-ethyl]-3H-imidazo[4,5-b]pyridin-6yl}-N,N-dimethyl-benzenesulfonamide]
melting point: 195 °C (dec.)
IC50 [1]: 229 nM
IC50 [2]: 933 nM

COc1ccc(-c2cnc3[nH]c(CCC4CCCCC(N)=N4)nc3c2)cc1 (stereo not shown) [compound 3, 7-{2-[6-(4-Methoxy-phenyl)-3H-imidazo[4,5-b]pyridin-2-yl]-ethyl}-4,5,6,7-tetrahydro-3H-azepin-2-ylamine]
melting point: 306 °C
IC50 [1]: 251 nM
IC50 [2]: 1580 nM

Cc1ccccc1NS(=O)(=O)c1ccc(-c2cnc3[nH]c(CCC4CCCCC(N)=N4)nc3c2)cc1 (stereo not shown) [compound 9, 4-{2-[2-(7-Amino-3,4,5,6-tetrahydro-2H-azepin-2-yl)-ethyl]-3H-imidazo[4,5-b]pyridin-6-yl}-N-o-tolyl-benzenesulfonamide]
melting point: 215 °C
IC50 [1]: 398 nM

NC1=NC(CCc2nc3cc(-c4ccc(S(=O)(=O)N5CCC5)cc4)cnc3[nH]2)CCCC1 (stereo not shown) [compound 6, 7-(2-{6-[4-(Azetidine-1-sulfonyl)-phenyl]-3H-imidazo[4,5-b]pyridin-2-yl}-ethyl)-4,5,6,7-tetrahydro-3H-azepin-2-ylamine]
melting point: 154 °C (dec.)
IC50 [1]: 302 nM
IC50 [2]: 603 nM

CN(CC1CCCO1)S(=O)(=O)c1ccc(-c2cnc3[nH]c(CCC4CCCCC(N)=N4)nc3c2)cc1 (stereo not shown) [compound 10, 4-{2-[2-(7-Amino-3,4,5,6-tetrahydro-2H-azepin-2-yl)-ethyl]-3H-imidazo[4,5-b]pyridin-6-yl}-N-methyl-N-(tetrahydro-furan-2-ylmethyl)-benzenesulfonamide]
melting point: 260 °C
IC50 [1]: 617 nM

NC1=NC(CCc2nc3cc(-c4cc5ccccc5o4)cnc3[nH]2)CCCC1 (stereo not shown) [compound 4, 7-[2-(6-Benzofuran-2-yl-3H-imidazo[4,5-b]pyridin-2-yl)-ethyl]-4,5,6,7-tetrahydro-3H-azepin-2-ylamine]
IC50 [1]: 229 nM
IC50 [2]: 955 nM
